Reference: patent publication US20250108038A1 (priority 2023, published 2025)
Several values for one entry are separate records, joined by “and”; a condition that tells them apart may be missing. Equal values may be shown once.

Test system: Long Evans rats
Assay: Behavioral satiety sequence (BSS)
Type: in vivo, Long Evans rat
Description: The Behavioural Satiety Sequence (BSS) is a technique used to evaluate physiological satiety. It is based on the expression of a sequence of behaviors including eating, grooming, locomotor activity, followed by resting, which are typically observed in rodents post-ingestion (Halford et al, 1998, Pharmacology Biochemistry and Behaviour. 61(2): 159-168). The BSS is a widely used model for determining the effects of novel pharmaceuticals on food intake and measures of satiety in rodents (Oliveira et al, 2011, Revista de Nutrição. 24(4) 619-628), and to discriminate the cause of reduced food intake following pharmacological manipulation. For example, treatments that may reduce food intake by non-specific mechanisms, such as immobility, malaise, and taste adulteration, will disrupt this sequence (Halford et al, 1998, Pharmacology Biochemistry and Behaviour. 61(2): 159-168).
Specifically, 12 male Long-Evans rats were food-deprived for 22 h with a 2 h feeding period each day. Rats were trained to consume daily food during the 2 h period over 25 days. The testing phase was initiated once the rats consistently consumed 16-18 g of food per day with ≤10% variance in amount of feed consumed. Feeding took place in designated individual boxes in a quiet room separate from the housing room. Continuous remote monitoring via video camera during feeding was used to assess the BSS. Food consumption was measured by weighing the total available food before and after the 2 h feeding window, correcting for spillage. Lorcaserin (1 mg/kg) was included as a reference control (Higgins et al, 2011, Neuropsychopharmacology. 37(5): 1177-1191). Subjects were tested using a repeated-measures, Latin square design with 2-3 days wash-out between treatment cycles.
On scheduled test days, animals were monitored remotely via video camera during the feeding access period. The occurrence of four mutually exclusive behaviors (eating/drinking, grooming, active, rest) were individually scored. Over the 2 h feeding period, behaviors were assessed every 30 seconds. Scores were compiled into 23 5 min timebins (timebin 24 was removed due to early removal of animals) and the frequency of each behavior within each timebin was calculated to determine a temporal frequency of each measure (Rodgers et al, 2010, Pharmacology Biochemistry and Behaviour. 97: 3-14). Percentage time was plotted for each behavioral sequence in each timebin to compare between treatment groups (Higgins et al, 2011, Neuropsychopharmacology. 37(5): 1177-1191).

[1] = Compound I-19 3 mg/kg i.p., raw score per animal
[2] = Compound I-19 3 mg/kg, AVG of 12 animals
[3] = Compound I-19 3 mg/kg, raw score of individual animals LT-1 to LT-12
[4] = Compound I-19 i.p., first dose group after lorcaserin (dose not given), raw score per animal

With `Clc1ccc(C2(OCC3OCCO3)c3ccccc3C3=NCCN32)cc1` (stereo not shown) [Compound I-19] the “BSS scoring R (resting), Time Bin 4 (15-20 TOTAL)” value [1] was 1 (2×) and 0 (10×), the “BSS scoring R (resting), Time Bin 5 (20-25 TOTAL)” value [1] was 0 (10×) and 1 (2×) and the “BSS scoring R (resting), Time Bin 6 (25-30 TOTAL)” value [1] was 0 (9×) and 1 and 2 (2×). For the same molecule, the “BSS scoring A (active), Time Bin 13 (60-65 TOTAL), AVG” value [2] was 0.18, the “BSS scoring A (active), Time Bin 14 (65-70 TOTAL), AVG” value [2] was 0.15 and the “BSS scoring A (active), Time Bin 15 (70-75 TOTAL), AVG” value [2] was 0.28. For the same molecule, the “BSS scoring A (active), Time Bin 16 (75-80 TOTAL), AVG” value [2] was 0.03, the “BSS scoring A (active), Time Bin 17 (80-85 TOTAL), AVG” value [2] was 0.18 and the “BSS scoring A (active), Time Bin 18 (85-90 TOTAL), AVG” value [2] was 0.12. For the same molecule, the “BSS scoring E (eating/drinking), Time Bin 13 (60-65 TOTAL), AVG” value [2] was 0.72, the “BSS scoring E (eating/drinking), Time Bin 14 (65-70 TOTAL), AVG” value [2] was 0.63 and the “BSS scoring E (eating/drinking), Time Bin 15 (70-75 TOTAL), AVG” value [2] was 0.53. For the same molecule, the “BSS scoring E (eating/drinking), Time Bin 16 (75-80 TOTAL), AVG” value [2] was 0.71, the “BSS scoring E (eating/drinking), Time Bin 17 (80-85 TOTAL), AVG” value [2] was 0.63 and the “BSS scoring E (eating/drinking), Time Bin 18 (85-90 TOTAL), AVG” value [2] was 0.65. The “BSS scoring G (grooming), Time Bin 13 (60-65 TOTAL), AVG” value [2] was 0.02, the “BSS scoring G (grooming), Time Bin 14 (65-70 TOTAL), AVG” value [2] was 0.02 and the “BSS scoring G (grooming), Time Bin 15 (70-75 TOTAL), AVG” value [2] was 0.06. For the same molecule, the “BSS scoring G (grooming), Time Bin 16 (75-80 TOTAL), AVG” value [2] was 0.05, the “BSS scoring G (grooming), Time Bin 17 (80-85 TOTAL), AVG” value [2] was 0.03 and the “BSS scoring G (grooming), Time Bin 18 (85-90 TOTAL), AVG” value [2] was 0.07. The “BSS scoring R (resting), Time Bin 13 (60-65 TOTAL), AVG” value [2] was 0.09, the “BSS scoring R (resting), Time Bin 14 (65-70 TOTAL), AVG” value [2] was 0.21 and the “BSS scoring R (resting), Time Bin 15 (70-75 TOTAL), AVG” value [2] was 0.13. For the same molecule, the “BSS scoring R (resting), Time Bin 16 (75-80 TOTAL), AVG” value [2] was 0.22, the “BSS scoring R (resting), Time Bin 17 (80-85 TOTAL), AVG” value [2] was 0.17 and the “BSS scoring R (resting), Time Bin 18 (85-90 TOTAL), AVG” value [2] was 0.17. The “BSS scoring A (active), Time Bin 13 (60-65 TOTAL)” value [3] was 3 and 0 (3×) and 2 (4×) and 1 (2×) and 4 (2×), the “BSS scoring A (active), Time Bin 14 (65-70 TOTAL)” value [3] was 8 and 0 (5×) and 1 (5×) and 5 and the “BSS scoring A (active), Time Bin 15 (70-75 TOTAL)” value [3] was 3 (2×) and 0 (5×) and 5 (3×) and 4 and 9. For the same molecule, the “BSS scoring A (active), Time Bin 16 (75-80 TOTAL)” value [3] was 0 (10×) and 1 and 2, the “BSS scoring A (active), Time Bin 17 (80-85 TOTAL)” value [3] was 0 (6×) and 8 and 2 and 3 and 4 (2×) and 1 and the “BSS scoring A (active), Time Bin 18 (85-90 TOTAL)” value [3] was 0 (7×) and 2 and 3 (2×) and 1 and 5. For the same molecule, the “BSS scoring E (eating/drinking), Time Bin 13 (60-65 TOTAL)” value [3] was 6 (3×) and 8 (4×) and 7 and 9 and 10 (2×) and 0, the “BSS scoring E (eating/drinking), Time Bin 14 (65-70 TOTAL)” value [3] was 2 (2×) and 8 (2×) and 9 (3×) and 10 and 3 (2×) and 7 and 5 and the “BSS scoring E (eating/drinking), Time Bin 15 (70-75 TOTAL)” value [3] was 7 (3×) and 9 and 8 and 5 (2×) and 0 (3×) and 6 and 10. The “BSS scoring E (eating/drinking), Time Bin 16 (75-80 TOTAL)” value [3] was 10 (4×) and 8 (3×) and 3 and 0 and 2 and 9 and 7, the “BSS scoring E (eating/drinking), Time Bin 17 (80-85 TOTAL)” value [3] was 7 and 2 and 8 and 10 (4×) and 0 (2×) and 3 and 6 and 9 and the “BSS scoring E (eating/drinking), Time Bin 18 (85-90 TOTAL)” value [3] was 10 (4×) and 8 (2×) and 5 (2×) and 0 (2×) and 9 and 3. The “BSS scoring G (grooming), Time Bin 13 (60-65 TOTAL)” value [3] was 1 (2×) and 0 (10×), the “BSS scoring G (grooming), Time Bin 14 (65-70 TOTAL)” value [3] was 0 (11×) and 2 and the “BSS scoring G (grooming), Time Bin 15 (70-75 TOTAL)” value [3] was 0 (8×) and 1 (3×) and 4. The “BSS scoring G (grooming), Time Bin 16 (75-80 TOTAL)” value [3] was 0 (8×) and 1 (3×) and 3, the “BSS scoring G (grooming), Time Bin 17 (80-85 TOTAL)” value [3] was 0 (10×) and 1 and 2 and the “BSS scoring G (grooming), Time Bin 18 (85-90 TOTAL)” value [3] was 0 (8×) and 4 and 1 (2×) and 2. The “BSS scoring R (resting), Time Bin 13 (60-65 TOTAL)” value [3] was 0 (8×) and 2 (2×) and 1 and 6, the “BSS scoring R (resting), Time Bin 14 (65-70 TOTAL)” value [3] was 0 (4×) and 2 (3×) and 1 (2×) and 6 and 7 and 4 and the “BSS scoring R (resting), Time Bin 15 (70-75 TOTAL)” value [3] was 0 (8×) and 2 and 5 (2×) and 3. The “BSS scoring R (resting), Time Bin 16 (75-80 TOTAL)” value [3] was 0 (4×) and 1 (4×) and 3 and 9 and 2 and 8, the “BSS scoring R (resting), Time Bin 17 (80-85 TOTAL)” value [3] was 3 (2×) and 0 (7×) and 1 and 8 and 5 and the “BSS scoring R (resting), Time Bin 18 (85-90 TOTAL)” value [3] was 0 (7×) and 2 (2×) and 6 and 9 and 1. The “effect on the behavioral satiety sequence (BSS)” value (Compound I-19 0.1-3 mg/kg IP, lorcaserin 1 mg/kg SC) was “did not affect the BSS compared to vehicle pretreatment”, the “BSS scoring A (active), Time Bin 7 (30-35 TOTAL)” value [4] was 2 and 0 and the “BSS scoring A (active), Time Bin 8 (35-40 TOTAL)” value [4] was 2 and 0. The “BSS scoring A (active), Time Bin 9 (40-45 TOTAL)” value [4] was 1 and 2, the “BSS scoring A (active), Time Bin 10 (45-50 TOTAL)” value [4] was 1 and the “BSS scoring A (active), Time Bin 11 (50-55 TOTAL)” value [4] was 1 and 0. For the same molecule, the “BSS scoring A (active), Time Bin 12 (55-60 TOTAL)” value [4] was 1 and 2, the “BSS scoring E (eating/drinking), Time Bin 7 (30-35 TOTAL)” value [4] was 6 and 9 and the “BSS scoring E (eating/drinking), Time Bin 8 (35-40 TOTAL)” value [4] was 6 and 9. The “BSS scoring E (eating/drinking), Time Bin 9 (40-45 TOTAL)” value [4] was 9 and 6, the “BSS scoring E (eating/drinking), Time Bin 10 (45-50 TOTAL)” value [4] was 7 and the “BSS scoring E (eating/drinking), Time Bin 11 (50-55 TOTAL)” value [4] was 8 and 10. For the same molecule, the “BSS scoring E (eating/drinking), Time Bin 12 (55-60 TOTAL)” value [4] was 5 and 8, the “BSS scoring G (grooming), Time Bin 7 (30-35 TOTAL)” value [4] was 0 and 1 and the “BSS scoring G (grooming), Time Bin 8 (35-40 TOTAL)” value [4] was 1. For the same molecule, the “BSS scoring G (grooming), Time Bin 9 (40-45 TOTAL)” value [4] was 0 and 1, the “BSS scoring G (grooming), Time Bin 10 (45-50 TOTAL)” value [4] was 1 and the “BSS scoring G (grooming), Time Bin 11 (50-55 TOTAL)” value [4] was 0. For the same molecule, the “BSS scoring G (grooming), Time Bin 12 (55-60 TOTAL)” value [4] was 1 and 0, the “BSS scoring R (resting), Time Bin 7 (30-35 TOTAL)” value [4] was 2 and 0 and the “BSS scoring R (resting), Time Bin 8 (35-40 TOTAL)” value [4] was 1 and 0. For the same molecule, the “BSS scoring R (resting), Time Bin 9 (40-45 TOTAL)” value [4] was 0 and 1, the “BSS scoring R (resting), Time Bin 10 (45-50 TOTAL)” value [4] was 1 and the “BSS scoring R (resting), Time Bin 11 (50-55 TOTAL)” value [4] was 1 and 0. The “BSS scoring R (resting), Time Bin 12 (55-60 TOTAL)” value [4] was 3 and 0.
